# Source: patent publication US9771352B2, “Hydroxyalkyl-substituted phenyltriazole derivatives and uses thereof” (BAYER PHARMA AKTIENGESELLSCHAFT, priority 2014, dated 2017)
# How the values were obtained:
# [1] = target: T1, human V2 receptor (Homo sapiens, UniProt P30518); assay: Cellular in vitro assay for determining vasopressin receptor activity, V2 receptor cell line (CRE-luciferase); assay type: cell-based; details: CHO cell line transfected with human V2 receptor; [Arg8]-vasopressin at EC50; compounds of the invention (Table 1A); read-out: IC50 hV2
# T1 construct: expressed in transfected cells; host or cells: CHO K1 (ATCC) expressing firefly luciferase under a CRE-responsive promoter
# T1 sequence (P30518 whole entry): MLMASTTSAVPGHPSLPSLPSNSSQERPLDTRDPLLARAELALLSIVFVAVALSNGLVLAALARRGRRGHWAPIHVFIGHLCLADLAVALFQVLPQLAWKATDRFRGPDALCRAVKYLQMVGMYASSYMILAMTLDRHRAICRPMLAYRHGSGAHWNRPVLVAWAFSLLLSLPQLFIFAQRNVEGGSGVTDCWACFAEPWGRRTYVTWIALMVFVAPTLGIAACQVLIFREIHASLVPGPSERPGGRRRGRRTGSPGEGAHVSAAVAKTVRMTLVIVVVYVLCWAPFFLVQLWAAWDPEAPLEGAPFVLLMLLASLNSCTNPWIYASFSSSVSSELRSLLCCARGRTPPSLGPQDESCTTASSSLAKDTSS
# Method: (§1) The identification of agonists and antagonists of the V1a and V2 vasopressin receptors from humans, rats and dogs as well as the quantification of the activity of the compounds of the invention is carried out using recombinant cell lines. These cell lines originally derive from a hamster's ovary epithelial cell (Chinese Hamster Ovary, CHO K1, ATCC: American Type Culture Collection, Manassas, Va. 20108, USA). The test cell lines constitutively express the human, rat or dog V1a or V2 receptors. In case of the […] V1a receptors, cells are also stably transfected with a modified form of the calcium-sensitive photoproteins aequorin (human and rat V1a) or obelin (dog V1a), which, after reconstitution with the cofactor coelenterazine, emit light when there are increases in free calcium concentrations [Rizzuto R, Simpson A W, Brini M, Pozzan T, Nature 358, 325-327 (1992); Illarionov B A, Bondar V S, Illarionova V A, Vysotski E S, Gene 153 (2), 273-274 (1995)]. The resulting vasopressin receptor cells react to stimulation of the recombinantly expressed V1a receptors by intracellular release of calcium ions, which can be quantified by the resulting photoprotein luminescence. The Gs-coupled V2 receptors are stably transfected into cell lines expressing the gene for firefly luciferase under control of a CRE-responsible promoter. Activation of V2 receptors induces the activation of the CRE-responsive promoter via cAMP increase, thereby inducing the expression of firefly luciferase. The light emitted by photoproteins of V1a cell lines as well as the light emitted by firefly luciferase of V2 cell lines corresponds to the activation or inhibition of the respective vasopressin receptor. The bioluminescence of the cell lines is detected using a suitable luminometer [Milligan G, Marshall F, Rees S, Trends in Pharmacological Sciences 17, 235-237 (1996)].
# On the day before the assay, the cells are plated out in culture medium (DMEM/F12, 2% FCS, 2 mM glutamine, 10 mM HEPES) in 384-well microtiter plates and kept in a cell incubator (96% humidity, 5% v/v CO2, 37° C.). […] Upon addition of the cell lysis reagent Triton and the substrate luciferin, luminescence of firefly luciferase is measured in a luminometer.
# (§2) Table 1A below lists individual IC50 values for the compounds of the invention (including diastereomeric mixtures as well as separated, enantiopure diastereomers) that were obtained from cell lines transfected with the human V1a or V2 receptor: […]
# [2] = target: T2, human V1a receptor (Homo sapiens, UniProt P37288); assay: Cellular in vitro assay for determining vasopressin receptor activity, V1a receptor cell line (photoprotein luminescence); assay type: cell-based; details: CHO cell line transfected with human V1a receptor; [Arg8]-vasopressin at EC50; compounds of the invention (Table 1A); read-out: IC50 hV1a
# T2 construct: expressed in transfected cells; host or cells: CHO K1 (ATCC), also stably transfected with modified aequorin
# T2 sequence (P37288 whole entry): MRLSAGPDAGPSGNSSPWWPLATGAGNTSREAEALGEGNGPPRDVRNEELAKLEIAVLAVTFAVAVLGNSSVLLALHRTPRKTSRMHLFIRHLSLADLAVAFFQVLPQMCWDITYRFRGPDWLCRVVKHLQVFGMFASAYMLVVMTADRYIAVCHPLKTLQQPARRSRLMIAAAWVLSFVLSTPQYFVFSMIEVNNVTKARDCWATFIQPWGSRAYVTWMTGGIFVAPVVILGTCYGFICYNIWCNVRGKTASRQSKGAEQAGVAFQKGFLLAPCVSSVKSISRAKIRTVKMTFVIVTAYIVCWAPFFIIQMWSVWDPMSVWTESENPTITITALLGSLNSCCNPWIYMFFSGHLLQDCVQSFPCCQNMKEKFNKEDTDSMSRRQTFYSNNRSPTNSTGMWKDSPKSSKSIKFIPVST
# Method: as §1
# On the day before the assay, the cells are plated out in culture medium (DMEM/F12, 2% FCS, 2 mM glutamine, 10 mM HEPES, 5 μg/ml coelenterazine) in 384-well microtiter plates and kept in a cell incubator (96% humidity, 5% v/v CO2, 37° C.). On the day of the assay, test compounds in various concentrations are placed for 10 minutes in the wells of the microtiter plate before the agonist [Arg^8]-vasopressin at EC50 concentration is added. The resulting light signal is measured immediately in the luminometer.
# as §2
SMILES,IC50 [1],IC50 [2]
"COc1ccccc1-n1nc(Cn2nc(-c3ccc(Cl)cc3)n(C[C@H](O)C(F)(F)F)c2=O)nc1C(C)O (mixture of isomers) [Example 10, 5-(4-Chlorophenyl)-2-({5-[(1RS)-1-hydroxyethyl]-1-(2-methoxyphenyl)-1H-1,2,4-triazol-3-yl}-methyl)-4-[(2S)-3,3,3-trifluoro-2-hydroxypropyl]-2,4-dihydro-3H-1,2,4-triazol-3-one]",1.4 nM,1.4 nM
"CC(O)c1nc(Cn2nc(-c3ccc(Cl)cc3)n(C[C@H](O)C(F)(F)F)c2=O)nn1-c1cc(F)cc(Cl)c1 (mixture of isomers) [Example 13, 2-({1-(3-Chloro-5-fluorophenyl)-5-[(1RS)-1-hydroxyethyl]-1H-1,2,4-triazol-3-yl}methyl)-5-(4-chlorophenyl)-4-[(2S)-3,3,3-trifluoro-2-hydroxypropyl]-2,4-dihydro-3H-1,2,4-triazol-3-one]",1.4 nM,6.2 nM
"CC(O)c1nc(Cn2nc(-c3ccc(Cl)cc3)n(C[C@H](O)C(F)(F)F)c2=O)nn1-c1ccccc1 (mixture of isomers) [Example 16, 5-(4-Chlorophenyl)-2-({5-[(1RS)-1-hydroxyethyl]-1-phenyl-1H-1,2,4-triazol-3-yl}methyl)-4-[(2S)-3,3,3-trifluoro-2-hydroxypropyl]-2,4-dihydro-3H-1,2,4-triazol-3-one]",6 nM,3.1 nM
"CC(O)c1nc(Cn2nc(-c3ccc(Cl)cc3)n(C[C@H](O)C(F)(F)F)c2=O)nn1-c1cccc(C(F)F)c1 (mixture of isomers) [Example 19, 5-(4-Chlorophenyl)-2-({1-[3-(difluoromethyl)phenyl]-5-[(1RS)-1-hydroxyethyl]-1H-1,2,4-triazol-3-yl}methyl)-4-[(2S)-3,3,3-trifluoro-2-hydroxypropyl]-2,4-dihydro-3H-1,2,4-triazol-3-one]",1.4 nM,12.4 nM
"CC(O)c1nc(Cn2nc(-c3ccc(Cl)cc3)n(C[C@H](O)C(F)(F)F)c2=O)nn1-c1cccc(C(F)(F)F)c1 (mixture of isomers) [Example 22, 5-(4-Chlorophenyl)-2-({5-[(1RS)-1-hydroxyethyl]-1-[3-(trifluoromethyl)phenyl]-1H-1,2,4-triazol-3-yl}methyl)-4-[(2S)-3,3,3-trifluoro-2-hydroxypropyl]-2,4-dihydro-3H-1,2,4-triazol-3-one]",2.3 nM,24.4 nM
"CC(O)c1nc(Cn2nc(-c3ccc(Cl)cc3)n(C[C@H](O)C(F)(F)F)c2=O)nn1-c1cc(F)cc(F)c1 (mixture of isomers) [Example 25, 5-(4-Chlorophenyl)-2-({1-(3,5-difluorophenyl)-5-[(1RS)-1-hydroxyethyl]-1H-1,2,4-triazol-3-yl}-methyl)-4-[(2S)-3,3,3-trifluoro-2-hydroxypropyl]-2,4-dihydro-3H-1,2,4-triazol-3-one]",3.6 nM,7.2 nM
"Cc1cccc(-n2nc(Cn3nc(-c4ccc(Cl)cc4)n(C[C@H](O)C(F)(F)F)c3=O)nc2C(C)O)c1 (mixture of isomers) [Example 28, 5-(4-Chlorophenyl)-2-({5-[(1RS)-1-hydroxyethyl]-1-(3-methylphenyl)-1H-1,2,4-triazol-3-yl}-methyl)-4-[(2S)-3,3,3-trifluoro-2-hydroxypropyl]-2,4-dihydro-3H-1,2,4-triazol-3-one]",0.2 nM,1.3 nM
"CC(O)c1nc(Cn2nc(-c3ccc(Cl)cc3)n(C[C@H](O)C(F)(F)F)c2=O)nn1-c1cc(F)ccc1Cl (single isomer, unassigned) [Example 59]",2.4 nM,
"CC(O)c1nc(Cn2nc(-c3ccc(Cl)cc3)n(C[C@H](O)C(F)(F)F)c2=O)nn1-c1cc(F)ccc1Cl (single isomer, unassigned) [Example 60]",5.2 nM,
